{
  "source": "ChEMBL document CHEMBL1142627",
  "about": "“Ribofuranosyl triazolone: a natural product herbicide with activity on adenylosuccinate synthetase following phosphorylation” (J Nat Prod, 2000)",
  "key": {"[1]": {"test": "(§1) Inhibition of rabbit muscle Adenylosuccinate synthase assessed as adenylosuccinate formation", "design": "species or system Oryctolagus cuniculus", "details": "read-out: I50"}, "[2]": {"species": "Oryctolagus cuniculus", "test": "as §1", "details": "TDE = time-dependent effect"}, "[3]": {"test": "Inhibition of Zea mays BMS cells Adenylosuccinate synthase assessed as adenylosuccinate formation", "format": "cell-based", "details": "read-out: I50"}},
  "data": [
    {"compound": "O=c1[nH]ncn1[C@@H]1O[C@H](COP(=O)(O)O)[C@@H](O)[C@H]1O", "note": "[PHOSPHORIBOFURANOSYL TRIAZOLONE]", "values": [
      {"measurement": "IC50", "setting": "[1]", "value": 180, "unit": "nM"},
      {"measurement": "Activity", "setting": "[2]", "value": "tde"},
      {"measurement": "IC50", "setting": "[3]", "value": 980, "unit": "nM"}
    ]}
  ]
}
